Series [1] in a line: AUC in mouse at 50 mg/kg, po measured for 40 mins by LC-MS/MS analysis. It counts as ADME, organism-based. The note with it: in vivo.
In series [2] the test system is Mus musculus. Description: Dose normalized in AUC mouse at 50 mg/kg by LC-MS/MS analysis. It counts as ADME, organism-based. Particulars: in vivo.
A short description of series [3]: Binding affinity to [125I] radiolabelled Angiotensin-2 receptor in bovine adrenal cortex membrane. The format is cell membranes, Bos taurus.
The target in series [4] is Dual specificity mitogen-activated protein kinase kinase 1 (Homo sapiens, UniProt Q02750). The series can be described thus: Inhibition of MEK1 (unknown origin) phosphorylation.
Series [5] is described as follows: In vivo inhibition of Angiotensin II-induced pressor response in Wistar rat model at 0.3 mg/kg, po and measured for 6 hrs. It counts as functional.
Series [6] can be described thus: AUC in po dosed mouse at 25 mg/kg by LC-MS/MS analysis. The format is ADME, organism-based. Particulars: in vivo.
Series [7] has as its system Mus musculus. Description: Dose normalized in AUC mouse at 25 mg/kg by LC-MS/MS analysis. The format is ADME, organism-based. Particulars: in vivo.

Dual specificity mitogen-activated protein kinase kinase 1, sequence (Q02750 whole entry): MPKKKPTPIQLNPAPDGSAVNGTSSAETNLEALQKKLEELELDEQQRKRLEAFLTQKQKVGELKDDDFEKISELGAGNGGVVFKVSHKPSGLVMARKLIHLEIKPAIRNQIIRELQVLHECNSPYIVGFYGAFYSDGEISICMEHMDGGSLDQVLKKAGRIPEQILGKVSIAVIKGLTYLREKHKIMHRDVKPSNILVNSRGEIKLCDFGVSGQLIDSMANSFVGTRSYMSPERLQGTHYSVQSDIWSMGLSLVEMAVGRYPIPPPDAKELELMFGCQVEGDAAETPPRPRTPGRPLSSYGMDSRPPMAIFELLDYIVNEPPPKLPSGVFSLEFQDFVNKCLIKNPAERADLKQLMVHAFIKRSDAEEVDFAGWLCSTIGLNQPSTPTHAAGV

In series [1], `Nc1nccn2c(C3CCC3)nc(-c3ccc4ccc(-c5ccccc5)nc4c3)c12` registered an AUC of 5170 ng·h/mL. Besides, in the series on Mus musculus [2], the AUC/dose was 103.4 ng·h/mL/mg/kg.

In series [3], `CCCc1nc(C)c(C(=O)O)n1Cc1ccc(-c2ccccc2-c2nn[nH]n2)cc1` gave an IC50 of 11 nM.

Compound `O=C(c1ccc(F)c(F)c1Nc1ccc(I)cc1F)N1CC(O)([C@@H]2CCCCN2)C1` [COBIMETINIB] came in with an IC50 in series [4] of 0.2 nM.

`CCCc1nc(CO)c(C(=O)O)n1Cc1ccc(-c2ccccc2-c2nn[nH]n2)cc1` registered an inhibition in vivo at 0.3 mg/kg in series [5] of 65%. The 50% inhibitory concentration (IC50) in series [3] was 6.9 nM.

In series [6], `C[C@]1(O)C[C@@H](c2nc(-c3ccc4ccc(-c5ccccc5)nc4c3)c3c(N)nccn32)C1` [LINSITINIB] displayed an AUC of 26700 ng·h/mL. Further, the AUC/dose with Mus musculus [7] worked out at 1069.6 ng·h/mL/mg/kg.

The compound `CCCc1nc(C(C)(C)O)c(C(=O)O)n1Cc1ccc(-c2ccccc2-c2nnn[nH]2)cc1` [OLMESARTAN] yielded an inhibition in vivo at 0.3 mg/kg in series [5] of 78%. In series [3], this compound showed an IC50 of 8.1 nM.

In the case of `CCCc1nc(CC)c(C(=O)O)n1Cc1ccc(-c2ccccc2-c2nn[nH]n2)cc1`, in series [3], the IC50 was found to be 12 nM.

`CCCc1nc(C(C)O)c(C(=O)O)n1Cc1ccc(-c2ccccc2-c2nn[nH]n2)cc1` (centres undefined): 0.3 mg/kg produced 69% inhibition in vivo in series [5]. Also, in series [3], the IC50 was 4.9 nM.

`CCCc1nc(C(C)C)c(C(=O)O)n1Cc1ccc(-c2ccccc2-c2nn[nH]n2)cc1` yielded an IC50 in series [3] of 46 nM.

As usually defined, the AUC is concentration integrated over time. By IC50 is commonly meant the point on the concentration scale where inhibition reaches its midpoint. The low end stands for greater potency, the high end for weaker potency. Broadly, the inhibition in vivo is the share of the control response that was lost under treatment. A low value points to a weak effect.

The values are drawn from ChEMBL document CHEMBL6109157, “Tertiary Alcohol: Reaping the Benefits but Minimizing the Drawbacks of Hydroxy Groups in Drug Discovery” (J Med Chem, 2025).
